Measured values published in publication PMC12749626, “Expediting hit-to-lead progression in drug discovery through reaction prediction and multi-dimensional optimization” (Nature Communications, 2025).
Values after ≈ are worked out from the molar mass of the structure shown.

Columns and labels:
β2-ADRENOCEPTOR = β2-ADRENOCEPTOR (Homo sapiens, UniProt P07550); assay: biochemical; conditions: read-out: β2-ADRENOCEPTOR percent activity or inhibition compared to the assay reference
5HT1A = 5HT1A (Homo sapiens, UniProt P08908); assay: biochemical; conditions: read-out: 5HT1A percent activity or inhibition compared to the assay reference
ADENOSINE A1 REC. = ADENOSINE A1 REC. (Homo sapiens, UniProt P30542); assay: biochemical; conditions: read-out: ADENOSINE A1 REC. percent activity or inhibition compared to the assay reference
5HT2A = 5HT2A (Homo sapiens, UniProt P28223); assay: biochemical; conditions: read-out: 5HT2A percent activity or inhibition compared to the assay reference
Solubility in 0.05M PO4- = format: physicochemical; conditions: for solubility: 0.05 M phosphate buffer, aqueous buffer
CYP2D6 = CYP2D6 (Homo sapiens, UniProt P10635); assay: Cytochrome P450 inhibition assay, CYP2D6; conditions: liver microsomes
κ OPIOID REC. = κ OPIOID REC. (Homo sapiens, UniProt P41145); assay: biochemical; conditions: read-out: κ OPIOID REC. percent activity or inhibition compared to the assay reference
5HT3 = 5HT3 (Homo sapiens, UniProt P46098); assay: biochemical; conditions: read-out: 5HT3 percent activity or inhibition compared to the assay reference
C[…]. CB1 = C[…]. CB1 (Homo sapiens, UniProt P21554); assay: biochemical; conditions: read-out: C[…]. CB1 percent activity or inhibition compared to the assay reference
ESTROGEN REC. α = ESTROGEN REC. α (Homo sapiens, UniProt P03372); assay: biochemical; conditions: read-out: ESTROGEN REC. α percent activity or inhibition compared to the assay reference
[1] = Parallel Artificial Membrane Permeability (PAMPA); conditions: for Papp at 18 h, 150 µM: PAMPA, pH 6
CYCLO OXYGENASE 2 = CYCLO OXYGENASE 2 (Homo sapiens, UniProt P35354); assay: biochemical; conditions: read-out: CYCLO OXYGENASE 2 percent activity or inhibition compared to the assay reference
PPARγ = PPARγ (Homo sapiens, UniProt P37231); assay: biochemical; conditions: read-out: PPARγ percent activity or inhibition compared to the assay reference
PHOSPHODIESTERASE 4D2 = PHOSPHODIESTERASE 4D2 (Homo sapiens, UniProt Q08499); assay: biochemical; conditions: read-out: PHOSPHODIESTERASE 4D2 percent activity or inhibition compared to the assay reference
μ OPIOID REC. = μ OPIOID REC. (Homo sapiens, UniProt P35372); assay: biochemical; conditions: read-out: μ OPIOID REC. percent activity or inhibition compared to the assay reference
α1A-ADRENOCEPTOR = α1A-ADRENOCEPTOR (Homo sapiens, UniProt P35348); assay: biochemical; conditions: read-out: α1A-ADRENOCEPTOR percent activity or inhibition compared to the assay reference
ACETYLCHOLINESTERASE = ACETYLCHOLINESTERASE (Homo sapiens, UniProt P22303); assay: biochemical; conditions: read-out: ACETYLCHOLINESTERASE percent activity or inhibition compared to the assay reference
[2] = Microsomal clearance, human microsomes
[3] = Microsomal clearance, mouse microsomes
[…]. M2 = […]. M2 (Homo sapiens, UniProt P08172); assay: biochemical; conditions: read-out: […]. M2 percent activity or inhibition compared to the assay reference
[…]. M1 = […]. M1 (Homo sapiens, UniProt P11229); assay: biochemical; conditions: read-out: […]. M1 percent activity or inhibition compared to the assay reference
β1-ADRENOCEPTOR = β1-ADRENOCEPTOR (Homo sapiens, UniProt P08588); assay: biochemical; conditions: read-out: β1-ADRENOCEPTOR percent activity or inhibition compared to the assay reference
PHOSPHODIESTERASE 3B = PHOSPHODIESTERASE 3B (Homo sapiens, UniProt Q13370); assay: biochemical; conditions: read-out: PHOSPHODIESTERASE 3B percent activity or inhibition compared to the assay reference
CYP2C9 = CYP2C9 (Homo sapiens, UniProt P11712); assay: Cytochrome P450 inhibition assay, CYP2C9; conditions: liver microsomes
HISTAMINE H3 REC. = HISTAMINE H3 REC. (Homo sapiens, UniProt Q9Y5N1); assay: biochemical; conditions: read-out: HISTAMINE H3 REC. percent activity or inhibition compared to the assay reference
XANTHINE OXIDASE = XANTHINE OXIDASE (Bos taurus, UniProt P80457); assay: biochemical; conditions: read-out: XANTHINE OXIDASE percent activity or inhibition compared to the assay reference
ADENOSINE A3 REC. = ADENOSINE A3 REC. (Homo sapiens, UniProt P0DMS8); assay: biochemical; conditions: read-out: ADENOSINE A3 REC. percent activity or inhibition compared to the assay reference
5HT2B = 5HT2B (Homo sapiens, UniProt P41595); assay: biochemical; conditions: read-out: 5HT2B percent activity or inhibition compared to the assay reference
NEURONAL NICOTINIC REC. = conditions: 10 uM; n=2
GABA-A = conditions: 10 uM; n=2
GLYCINE REC. = conditions: 10 uM; n=2

HISTAMINE H3 REC., sequence (Q9Y5N1 whole entry): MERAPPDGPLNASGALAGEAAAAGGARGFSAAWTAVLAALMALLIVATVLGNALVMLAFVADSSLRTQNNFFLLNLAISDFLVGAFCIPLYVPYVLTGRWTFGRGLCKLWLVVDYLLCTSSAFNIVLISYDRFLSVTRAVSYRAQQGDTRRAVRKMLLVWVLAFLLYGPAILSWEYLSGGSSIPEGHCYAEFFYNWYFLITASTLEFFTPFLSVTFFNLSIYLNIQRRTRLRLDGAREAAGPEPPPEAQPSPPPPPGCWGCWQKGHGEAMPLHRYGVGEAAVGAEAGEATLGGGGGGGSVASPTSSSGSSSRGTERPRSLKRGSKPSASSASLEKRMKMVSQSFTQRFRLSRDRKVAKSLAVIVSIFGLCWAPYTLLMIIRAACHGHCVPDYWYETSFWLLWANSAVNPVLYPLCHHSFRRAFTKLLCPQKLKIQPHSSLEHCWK
UniProt Q13370, sequence (Q13370 whole entry): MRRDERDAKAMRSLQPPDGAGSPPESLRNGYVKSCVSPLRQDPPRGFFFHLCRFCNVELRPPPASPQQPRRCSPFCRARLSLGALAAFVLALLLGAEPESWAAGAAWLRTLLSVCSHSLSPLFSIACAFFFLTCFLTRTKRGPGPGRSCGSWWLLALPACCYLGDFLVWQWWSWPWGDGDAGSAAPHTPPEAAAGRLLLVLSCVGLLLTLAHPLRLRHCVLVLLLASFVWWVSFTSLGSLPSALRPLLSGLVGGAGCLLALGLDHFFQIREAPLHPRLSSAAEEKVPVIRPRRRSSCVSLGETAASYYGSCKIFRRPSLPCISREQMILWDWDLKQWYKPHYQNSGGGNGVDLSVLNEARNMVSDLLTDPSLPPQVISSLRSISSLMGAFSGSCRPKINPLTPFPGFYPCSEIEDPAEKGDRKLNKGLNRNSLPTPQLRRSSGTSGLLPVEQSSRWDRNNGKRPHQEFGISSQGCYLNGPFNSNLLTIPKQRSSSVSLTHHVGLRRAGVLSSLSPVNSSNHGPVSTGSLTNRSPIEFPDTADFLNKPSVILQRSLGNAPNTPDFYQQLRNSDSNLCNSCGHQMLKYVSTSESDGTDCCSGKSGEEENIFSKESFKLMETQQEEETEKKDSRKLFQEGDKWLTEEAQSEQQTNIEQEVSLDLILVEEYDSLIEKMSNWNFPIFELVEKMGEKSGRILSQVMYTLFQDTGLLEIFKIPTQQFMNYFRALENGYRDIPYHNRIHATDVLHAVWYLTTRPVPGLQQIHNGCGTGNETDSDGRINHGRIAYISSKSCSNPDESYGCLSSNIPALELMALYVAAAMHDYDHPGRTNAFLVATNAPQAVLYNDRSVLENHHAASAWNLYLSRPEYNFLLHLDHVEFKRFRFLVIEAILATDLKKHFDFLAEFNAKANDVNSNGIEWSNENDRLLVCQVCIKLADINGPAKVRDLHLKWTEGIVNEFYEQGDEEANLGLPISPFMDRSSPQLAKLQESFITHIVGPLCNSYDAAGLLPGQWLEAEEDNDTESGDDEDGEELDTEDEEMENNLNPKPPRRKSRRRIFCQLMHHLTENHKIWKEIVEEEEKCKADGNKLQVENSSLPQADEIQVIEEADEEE
C[…]. CB1, sequence (P21554 whole entry): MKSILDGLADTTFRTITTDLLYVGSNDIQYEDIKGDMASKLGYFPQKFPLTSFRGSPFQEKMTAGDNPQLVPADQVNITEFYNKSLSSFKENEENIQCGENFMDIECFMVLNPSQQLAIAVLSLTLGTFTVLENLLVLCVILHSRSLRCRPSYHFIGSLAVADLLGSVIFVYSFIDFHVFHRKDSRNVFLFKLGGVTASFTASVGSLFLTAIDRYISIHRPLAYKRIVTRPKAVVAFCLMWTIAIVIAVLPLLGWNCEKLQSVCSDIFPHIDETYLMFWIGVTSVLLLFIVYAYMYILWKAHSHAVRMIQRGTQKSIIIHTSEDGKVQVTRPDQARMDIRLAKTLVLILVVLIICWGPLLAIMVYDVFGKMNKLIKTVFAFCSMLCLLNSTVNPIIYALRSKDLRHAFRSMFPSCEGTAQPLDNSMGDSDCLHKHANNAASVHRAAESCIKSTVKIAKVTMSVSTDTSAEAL
CYCLO OXYGENASE 2, sequence (P35354 18-604): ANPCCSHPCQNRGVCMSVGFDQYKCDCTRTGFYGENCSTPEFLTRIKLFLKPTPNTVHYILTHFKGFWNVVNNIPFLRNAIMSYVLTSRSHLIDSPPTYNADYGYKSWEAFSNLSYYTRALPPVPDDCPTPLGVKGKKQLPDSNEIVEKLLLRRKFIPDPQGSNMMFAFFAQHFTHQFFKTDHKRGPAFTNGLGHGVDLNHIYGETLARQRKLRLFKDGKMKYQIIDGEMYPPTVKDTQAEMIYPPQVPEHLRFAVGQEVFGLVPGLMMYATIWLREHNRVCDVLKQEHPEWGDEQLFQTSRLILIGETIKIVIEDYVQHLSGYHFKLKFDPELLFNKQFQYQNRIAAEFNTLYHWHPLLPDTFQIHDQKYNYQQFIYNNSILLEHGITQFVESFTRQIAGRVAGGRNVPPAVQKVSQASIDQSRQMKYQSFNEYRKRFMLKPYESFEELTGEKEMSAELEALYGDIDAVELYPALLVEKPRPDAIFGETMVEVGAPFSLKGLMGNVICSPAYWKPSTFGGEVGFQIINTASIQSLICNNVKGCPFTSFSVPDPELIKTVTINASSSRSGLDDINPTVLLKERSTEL
PPARγ, sequence (P37231 whole entry): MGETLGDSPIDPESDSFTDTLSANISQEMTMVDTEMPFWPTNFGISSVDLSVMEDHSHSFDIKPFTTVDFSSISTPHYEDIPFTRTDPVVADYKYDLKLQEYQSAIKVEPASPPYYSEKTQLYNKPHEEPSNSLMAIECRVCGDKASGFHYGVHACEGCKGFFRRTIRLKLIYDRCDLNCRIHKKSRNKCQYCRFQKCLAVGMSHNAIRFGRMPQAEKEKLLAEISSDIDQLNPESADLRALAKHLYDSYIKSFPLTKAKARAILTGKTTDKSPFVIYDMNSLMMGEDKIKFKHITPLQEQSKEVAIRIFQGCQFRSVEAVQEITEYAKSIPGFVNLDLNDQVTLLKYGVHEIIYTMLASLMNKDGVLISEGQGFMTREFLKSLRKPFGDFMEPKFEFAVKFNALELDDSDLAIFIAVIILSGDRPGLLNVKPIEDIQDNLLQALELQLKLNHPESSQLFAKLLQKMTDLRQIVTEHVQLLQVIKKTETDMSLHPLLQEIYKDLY
UniProt P08588, sequence (P08588 whole entry): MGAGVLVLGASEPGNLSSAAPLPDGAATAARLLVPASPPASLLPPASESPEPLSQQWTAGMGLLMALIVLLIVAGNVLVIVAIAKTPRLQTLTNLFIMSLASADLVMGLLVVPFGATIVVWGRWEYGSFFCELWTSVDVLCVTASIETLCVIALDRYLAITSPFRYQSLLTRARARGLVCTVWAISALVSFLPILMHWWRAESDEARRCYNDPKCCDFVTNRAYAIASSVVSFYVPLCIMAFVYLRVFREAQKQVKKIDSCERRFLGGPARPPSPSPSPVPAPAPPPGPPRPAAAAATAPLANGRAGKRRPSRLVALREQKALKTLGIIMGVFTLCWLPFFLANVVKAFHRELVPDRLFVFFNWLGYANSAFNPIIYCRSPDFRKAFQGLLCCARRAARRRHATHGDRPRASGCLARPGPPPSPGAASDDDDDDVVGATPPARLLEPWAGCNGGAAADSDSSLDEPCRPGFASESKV
ADENOSINE A3 REC., sequence (P0DMS8 whole entry): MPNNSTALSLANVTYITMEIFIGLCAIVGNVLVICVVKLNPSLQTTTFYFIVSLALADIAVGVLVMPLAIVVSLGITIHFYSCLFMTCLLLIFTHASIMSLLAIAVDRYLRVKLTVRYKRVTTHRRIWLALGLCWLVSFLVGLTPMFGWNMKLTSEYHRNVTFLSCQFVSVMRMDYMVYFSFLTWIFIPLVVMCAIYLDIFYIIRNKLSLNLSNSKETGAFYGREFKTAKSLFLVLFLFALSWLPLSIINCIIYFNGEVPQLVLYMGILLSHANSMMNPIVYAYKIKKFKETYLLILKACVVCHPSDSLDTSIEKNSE
5HT3, sequence (P46098 24-478): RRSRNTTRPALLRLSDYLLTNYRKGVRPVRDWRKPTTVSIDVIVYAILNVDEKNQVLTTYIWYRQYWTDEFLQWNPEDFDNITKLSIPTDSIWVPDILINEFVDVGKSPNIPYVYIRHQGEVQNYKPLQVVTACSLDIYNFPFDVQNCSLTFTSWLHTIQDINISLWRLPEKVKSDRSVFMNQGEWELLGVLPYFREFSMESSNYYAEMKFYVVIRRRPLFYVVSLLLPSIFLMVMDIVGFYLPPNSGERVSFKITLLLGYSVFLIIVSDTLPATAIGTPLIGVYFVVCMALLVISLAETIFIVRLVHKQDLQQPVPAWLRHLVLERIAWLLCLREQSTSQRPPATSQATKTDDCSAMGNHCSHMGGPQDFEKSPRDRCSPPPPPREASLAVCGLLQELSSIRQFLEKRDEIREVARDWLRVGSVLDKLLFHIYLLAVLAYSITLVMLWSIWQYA
5HT2B, sequence (P41595 whole entry): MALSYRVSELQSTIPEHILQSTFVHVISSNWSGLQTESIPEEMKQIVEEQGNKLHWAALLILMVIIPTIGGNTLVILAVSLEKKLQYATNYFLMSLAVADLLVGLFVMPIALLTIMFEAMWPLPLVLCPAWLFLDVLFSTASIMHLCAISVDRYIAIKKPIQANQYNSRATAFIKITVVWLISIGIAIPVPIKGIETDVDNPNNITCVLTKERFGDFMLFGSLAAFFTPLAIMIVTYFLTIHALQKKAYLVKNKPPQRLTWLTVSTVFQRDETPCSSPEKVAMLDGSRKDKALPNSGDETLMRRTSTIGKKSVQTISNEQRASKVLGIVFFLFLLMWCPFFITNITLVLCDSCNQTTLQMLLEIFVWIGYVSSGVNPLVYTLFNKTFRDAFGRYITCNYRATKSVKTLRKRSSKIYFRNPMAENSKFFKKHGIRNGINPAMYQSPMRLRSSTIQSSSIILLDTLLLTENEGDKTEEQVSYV

| Compound | inhibition at 10 µM (β2-ADRENOCEPTOR) | inhibition at 10 µM (5HT1A) | inhibition at 10 µM (ADENOSINE A1 REC.) | inhibition at 10 µM (5HT2A) | solubility (Solubility in 0.05M PO4-) | CYP2D6 Inhibition (CYP2D6) | inhibition at 10 µM (κ OPIOID REC.) | inhibition at 10 µM (5HT3) | inhibition at 10 µM (C[…]. CB1) | inhibition at 10 µM (ESTROGEN REC. α) | Papp at 18 h, 150 µM [1] | inhibition at 10 µM (CYCLO OXYGENASE 2) | inhibition at 10 µM (PPARγ) | inhibition at 10 µM (PHOSPHODIESTERASE 4D2) | inhibition at 10 µM (μ OPIOID REC.) | inhibition at 10 µM (α1A-ADRENOCEPTOR) | inhibition at 10 µM (ACETYLCHOLINESTERASE) | microsomal CLint at 1 µM [2] | microsomal CLint at 1 µM [3] | CYP2C9 Inhibition (CYP2C9) | further results |
| --- | --- | --- | --- | --- | --- | --- | --- | --- | --- | --- | --- | --- | --- | --- | --- | --- | --- | --- | --- | --- | --- |
| O=C(c1ccc2nc(-c3cccnc3)oc2c1)N1CCN(c2nc3ccccc3c(=O)[nH]2)CC1 [Compound 17] | 1% | 1% | 70% | 7% | 4.2 µg/mL (≈ 9.28 µM) | -24% | 15% | 0% | 2% | 0% | 4 ×10⁻⁶ cm/s | 20% | -4% | 21% | 48% | 13% | 3% | 10 µL/min/mg | 10 µL/min/mg | 2% | inhibition at 10 µM ([…]. M2): 27%; inhibition at 10 µM ([…]. M1): 9%; inhibition at 10 µM (β1-ADRENOCEPTOR): 4%; inhibition at 10 µM (PHOSPHODIESTERASE 3B): 2%; inhibition at 10 µM (HISTAMINE H3 REC.): 14%; inhibition at 10 µM (XANTHINE OXIDASE): 2%; inhibition at 10 µM (ADENOSINE A3 REC.): 13%; inhibition at 10 µM (5HT2B): 28% |
| O=C(c1ccc2nc(-c3cnccc3C3CCCC3)oc2c1)N1CCN(c2nc3nc(Cl)ccc3o2)CC1 [Compound 23] | 4% | 11% | 24% | 2% | < 0.05 µg/mL | 38% | 18% | -6% | 2% | 5% | 4 ×10⁻⁶ cm/s | 4% | 7% | 20% | 21% | 4% | -1% | 415 µL/min/mg | 176 µL/min/mg | 45% | NEURONAL NICOTINIC REC. percent activity or inhibition compared to the assay reference (NEURONAL NICOTINIC REC.): -3%; GABA-A percent activity or inhibition compared to the assay reference (GABA-A): 16%; GLYCINE REC. percent activity or inhibition compared to the assay reference (GLYCINE REC.): 7%; inhibition at 10 µM ([…]. M2): 40%; inhibition at 10 µM ([…]. M1): 10%; inhibition at 10 µM (β1-ADRENOCEPTOR): 2%; inhibition at 10 µM (PHOSPHODIESTERASE 3B): -8%; inhibition at 10 µM (HISTAMINE H3 REC.): 4%; inhibition at 10 µM (XANTHINE OXIDASE): 6%; inhibition at 10 µM (ADENOSINE A3 REC.): 21%; inhibition at 10 µM (5HT2B): 3% |
| O=C(c1ccc2nc(-c3cnccc3C3(C4CCC4)CC3)oc2c1)N1CCN(c2nc3nc(Cl)ccc3o2)CC1 [Compound 27] |  |  |  |  |  | 79% |  |  |  |  |  |  |  |  |  |  |  |  |  | 73% | NEURONAL NICOTINIC REC. percent activity or inhibition compared to the assay reference (NEURONAL NICOTINIC REC.): -8%; Solubility in 0.05M PO4- (Solubility in 0.05M PO4-): < 0.6 µg/mL; GABA-A percent activity or inhibition compared to the assay reference (GABA-A): 69%; GLYCINE REC. percent activity or inhibition compared to the assay reference (GLYCINE REC.): 3%; PAMPA permeability ([1]; donor buffer pH 6.0, 18-hour incubation): 0.9 10^-6 cm/s |
| O=C(c1ccc2nc(-c3cnccc3C3CCCC3)oc2c1)N1CC2(CC(n3cnc(C4CC4)n3)C2)C1 [Compound 29] | 7% | 19% | 9% | 10% | < 0.05 µg/mL | 34% | 32% | -2% | 9% | -3% | 5.9 ×10⁻⁶ cm/s | 23% | 16% | 65% | 30% | 50% | 0% | 425 µL/min/mg | 536 µL/min/mg | 70% | NEURONAL NICOTINIC REC. percent activity or inhibition compared to the assay reference (NEURONAL NICOTINIC REC.): 6%; GABA-A percent activity or inhibition compared to the assay reference (GABA-A): 61%; GLYCINE REC. percent activity or inhibition compared to the assay reference (GLYCINE REC.): -2%; cell permeability ([1]; in words, SI2.2, Fig. S1 (PAMPA vs LipE)): potent cell permeability; inhibition at 10 µM ([…]. M2): 33%; inhibition at 10 µM ([…]. M1): 8%; inhibition at 10 µM (β1-ADRENOCEPTOR): 7%; inhibition at 10 µM (PHOSPHODIESTERASE 3B): 6%; inhibition at 10 µM (HISTAMINE H3 REC.): 12%; inhibition at 10 µM (XANTHINE OXIDASE): 3%; inhibition at 10 µM (ADENOSINE A3 REC.): 28%; inhibition at 10 µM (5HT2B): 55% |
